Experimental data published in patent US8952024B2, “Herbicidal pyrimidone derivatives” (E I du Pont de Nemours and Company, priority 2009, dated 2015).

Key:
Type in all cases: in vivo
[1] = test system: chickweed (Stellaria media); test: Test B postemergence plant response; conditions: for Chickweed plant response rating (0 to 100 scale): 62 g ai/ha, 0 is no effect, 13 to 15 days
Summary of the method: (§1)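 Visual ratings from 0 (no effect) to 100 (complete control), made against controls 13–15 days after treatment, kept in a greenhouse. Compounds were applied postemergence to potted plants at the 1- to 4-leaf stage (2–18 cm).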

[2] = test system: canarygrass (Phalaris minor); test: Test B postemergence plant response; conditions: for Canarygrass plant response rating (0 to 100 scale): 62 g ai/ha, 0 is no effect, 13 to 15 days
Summary of the method: as §1

[3] = test system: winter barley (Hordeum vulgare); test: Test B postemergence plant response; conditions: for Barley plant response rating (0 to 100 scale): 62 g ai/ha, 0 is no effect, 13 to 15 days
Summary of the method: as §1

[4] = test system: windgrass (Apera spica-venti); test: Test B postemergence plant response; conditions: for Windgrass plant response rating (0 to 100 scale): 62 g ai/ha, postemergence, 0 is no effect, 100 is complete control, 13 to 15 days; for Plant response rating, Windgrass: Postemergence, 125 g ai/ha, scale 0 to 100 (0 no effect, 100 complete control)
Summary of the method: as §1

corn (Zea mays) = test: Test B pre-/postemergence plant response; conditions: for Corn plant response rating (0 to 100 scale): 62 g ai/ha, 0 is no effect, 13 to 15 days
Summary of the method: (§2)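 Greenhouse herbicide screen. Pre- and postemergence (1- to 4-leaf) spray of compound in solvent/surfactant mixture; loam–sand soil for pre, peat/vermiculite medium for post. Visual control rating 0–100 at 13 to 15 days after treatment.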

[5] = test system: blackgrass (Alopecurus myosuroides); test: Test B pre-/postemergence plant response; conditions: for Blackgrass plant response rating (0 to 100 scale): 62 g ai/ha, 0 is no effect, 13 to 15 days
Summary of the method: as §2

[6] = test system: bermudagrass (Cynodon dactylon); test: Test B pre-/postemergence plant response; conditions: for Bermudagrass plant response rating (0 to 100 scale): 62 g ai/ha, 0 is no effect, 13 to 15 days
Summary of the method: as §2

[7] = test system: giant foxtail (Setaria faberii); test: Test B pre-/postemergence plant response; conditions: for Foxtail, Giant plant response rating (0 to 100 scale): 62 g ai/ha, 0 is no effect, 13 to 15 days
Summary of the method: as §2

[8] = test system: johnsongrass (Sorghum halepense); test: Test B pre-/postemergence plant response; conditions: for Johnsongrass plant response rating (0 to 100 scale): 62 g ai/ha, 0 is no effect, 13 to 15 days
Summary of the method: as §2

wild oat (Avena fatua) = test: Test B pre-/postemergence plant response; conditions: for Oat, Wild plant response rating (0 to 100 scale): 62 g ai/ha, 0 is no effect, 13 to 15 days
Summary of the method: as §2

soybean (Glycine max) = test: Test B pre-/postemergence plant response; conditions: for Soybean plant response rating (0 to 100 scale): 62 g ai/ha, postemergence, 0 is no effect, 100 is complete control, 13 to 15 days; for Plant response rating, Soybean: Postemergence, scale 0 to 100 (0 no effect, 100 complete control)
Summary of the method: as §2

kochia (Kochia scoparia) = test: Test B pre-/postemergence plant response; conditions: for Kochia plant response rating (0 to 100 scale): 62 g ai/ha, 0 is no effect, 13 to 15 days
Summary of the method: as §2

[9] = test system: morningglory (Ipomoea coccinea); test: Test B pre-/postemergence plant response; conditions: for Morningglory plant response rating (0 to 100 scale): 62 g ai/ha, 0 is no effect, 13 to 15 days
Summary of the method: as §2

[10] = test system: cocklebur (Xanthium strumarium); test: Test B pre-/postemergence plant response; conditions: for Cocklebur plant response rating (0 to 100 scale): 62 g ai/ha, 0 is no effect, 13 to 15 days
Summary of the method: as §2

[11] = 31 g ai/ha, postemergence, scale 0 to 100, 0 is no effect, 100 is complete control
[12] = postemergence, 100 is complete control
[13] = Postemergence, 125 g ai/ha, scale 0 to 100 (0 no effect, 100 complete control)
[14] = Postemergence, 250 g ai/ha, scale 0 to 100 (0 no effect, 100 complete control)

Compound: COCC(C)n1c(-c2ccccc2)ncc(C(=O)C2=C(O)CCCC2=O)c1=O (centres unmarked) [Compound 107]
- Plant response rating, Chickweed [1, 11]: 98
- Chickweed plant response rating (0 to 100 scale) [1, 12]: 100
- Plant response rating, Chickweed [1, 13]: 100
- Plant response rating, Chickweed [1, 14]: 100
- Plant response rating, Canarygrass [2, 11]: 5
- Canarygrass plant response rating (0 to 100 scale) [2, 12]: 15
- Plant response rating, Canarygrass [2, 13]: 60
- Plant response rating, Canarygrass [2, 14]: 80
- Plant response rating, Barley [3, 11]: 0
- Barley plant response rating (0 to 100 scale) [3, 12]: 5
- Plant response rating, Barley [3, 13]: 25
- Plant response rating, Barley [3, 14]: 30
- Windgrass plant response rating (0 to 100 scale) [4]: 40
- Plant response rating, Windgrass [4]: 80
- Plant response rating, Corn (corn (Zea mays); [11]): 65
- Corn plant response rating (0 to 100 scale) (corn (Zea mays); [12]): 65
- Plant response rating, Corn (corn (Zea mays); [13]): 75
- Plant response rating, Corn (corn (Zea mays); [14]): 85
- Plant response rating, Blackgrass [5, 11]: 0
- Blackgrass plant response rating (0 to 100 scale) [5, 12]: 5
- Plant response rating, Blackgrass [5, 13]: 15
- Plant response rating, Blackgrass [5, 14]: 20
- Plant response rating, Bermudagrass [6, 11]: 75
- Bermudagrass plant response rating (0 to 100 scale) [6, 12]: 80
- Plant response rating, Bermudagrass [6, 13]: 95
- Plant response rating, Bermudagrass [6, 14]: 98
- Plant response rating, Foxtail, Giant [7, 11]: 75
- Foxtail, Giant plant response rating (0 to 100 scale) [7, 12]: 80
- Plant response rating, Foxtail, Giant [7, 13]: 85
- Plant response rating, Foxtail, Giant [7, 14]: 95
- Plant response rating, Johnsongrass [8, 11]: 60
- Johnsongrass plant response rating (0 to 100 scale) [8, 12]: 70
- Plant response rating, Johnsongrass [8, 13]: 70
- Plant response rating, Johnsongrass [8, 14]: 90
- Plant response rating, Oat, Wild (wild oat (Avena fatua); [11]): 0
- Oat, Wild plant response rating (0 to 100 scale) (wild oat (Avena fatua); [12]): 5
- Plant response rating, Oat, Wild (wild oat (Avena fatua); [13]): 20
- Plant response rating, Oat, Wild (wild oat (Avena fatua); [14]): 40
- Soybean plant response rating (0 to 100 scale) (soybean (Glycine max)): 98
- Plant response rating, Soybean (soybean (Glycine max); 125 g ai/ha): 100
- Plant response rating, Soybean (soybean (Glycine max); 250 g ai/ha): 100
- Plant response rating, Kochia (kochia (Kochia scoparia); [11]): 98
- Kochia plant response rating (0 to 100 scale) (kochia (Kochia scoparia); [12]): 98
- Plant response rating, Kochia (kochia (Kochia scoparia); [13]): 100
- Plant response rating, Kochia (kochia (Kochia scoparia); [14]): 100
- Plant response rating, Morningglory [9, 11]: 100
- Morningglory plant response rating (0 to 100 scale) [9, 12]: 100
- Plant response rating, Morningglory [9, 13]: 100
- Plant response rating, Morningglory [9, 14]: 100
- Plant response rating, Cocklebur [10, 11]: 98
- Cocklebur plant response rating (0 to 100 scale) [10, 12]: 100
- Plant response rating, Cocklebur [10, 13]: 100
- Plant response rating, Cocklebur [10, 14]: 100

Compound: COCCn1c(-c2cccc(C)c2)ncc(C(=O)C2=C(O)CCCC2=O)c1=O [Compound 117]
- Plant response rating, Chickweed [1, 11]: 85
- Chickweed plant response rating (0 to 100 scale) [1, 12]: 95
- Plant response rating, Chickweed [1, 13]: 98
- Plant response rating, Chickweed [1, 14]: 100
- Plant response rating, Canarygrass [2, 11]: 0
- Canarygrass plant response rating (0 to 100 scale) [2, 12]: 0
- Plant response rating, Canarygrass [2, 13]: 5
- Plant response rating, Canarygrass [2, 14]: 5
- Plant response rating, Barley [3, 11]: 0
- Barley plant response rating (0 to 100 scale) [3, 12]: 0
- Plant response rating, Barley [3, 13]: 0
- Plant response rating, Barley [3, 14]: 0
- Windgrass plant response rating (0 to 100 scale) [4]: 45
- Plant response rating, Windgrass [4]: 65
- Plant response rating, Corn (corn (Zea mays); [11]): 10
- Corn plant response rating (0 to 100 scale) (corn (Zea mays); [12]): 15
- Plant response rating, Corn (corn (Zea mays); [13]): 25
- Plant response rating, Corn (corn (Zea mays); [14]): 25
- Plant response rating, Blackgrass [5, 11]: 0
- Blackgrass plant response rating (0 to 100 scale) [5, 12]: 10
- Plant response rating, Blackgrass [5, 13]: 40
- Plant response rating, Blackgrass [5, 14]: 40
- Plant response rating, Bermudagrass [6, 11]: 75
- Bermudagrass plant response rating (0 to 100 scale) [6, 12]: 90
- Plant response rating, Bermudagrass [6, 13]: 95
- Plant response rating, Bermudagrass [6, 14]: 100
- Plant response rating, Foxtail, Giant [7, 11]: 65
- Foxtail, Giant plant response rating (0 to 100 scale) [7, 12]: 75
- Plant response rating, Foxtail, Giant [7, 13]: 80
- Plant response rating, Foxtail, Giant [7, 14]: 95
- Plant response rating, Johnsongrass [8, 11]: 5
- Johnsongrass plant response rating (0 to 100 scale) [8, 12]: 20
- Plant response rating, Johnsongrass [8, 14]: 25
- Plant response rating, Oat, Wild (wild oat (Avena fatua); [11]): 5
- Oat, Wild plant response rating (0 to 100 scale) (wild oat (Avena fatua); [12]): 10
- Plant response rating, Oat, Wild (wild oat (Avena fatua); [13]): 30
- Plant response rating, Oat, Wild (wild oat (Avena fatua); [14]): 35
- Soybean plant response rating (0 to 100 scale) (soybean (Glycine max)): 80
- Plant response rating, Soybean (soybean (Glycine max); 125 g ai/ha): 95
- Plant response rating, Soybean (soybean (Glycine max); 250 g ai/ha): 95
- Plant response rating, Kochia (kochia (Kochia scoparia); [11]): 45
- Kochia plant response rating (0 to 100 scale) (kochia (Kochia scoparia); [12]): 50
- Plant response rating, Kochia (kochia (Kochia scoparia); [14]): 85
- Plant response rating, Morningglory [9, 11]: 10
- Morningglory plant response rating (0 to 100 scale) [9, 12]: 75
- Plant response rating, Morningglory [9, 13]: 80
- Plant response rating, Morningglory [9, 14]: 100
- Plant response rating, Cocklebur [10, 11]: 75
- Cocklebur plant response rating (0 to 100 scale) [10, 12]: 75
- Plant response rating, Cocklebur [10, 13]: 98
- Plant response rating, Cocklebur [10, 14]: 100
